Active and inactive are the calls of the source.
How the values were obtained:
[1] = viability of PTEN-deleted HCT116 cells – cell-based, HCT116 PTEN knockout, dose response (AID 1047); assay type: functional;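 further: HCT116 colon tumor cells with PTEN knocked out; cells exposed to compound for 60 hours before readout; potency for loss of cell viability measured by luminescence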
[2] = viability of HCT116 lacking mutant beta-catenin – cell-based, human colon tumor, dose response (AID 1045); assay type: functional;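 further: HCT116 colon tumor cells with beta catenin knocked out; cells exposed to compound for 60 hours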
Escherichia coli = assay: microbe, parasite or virus in culture
[3] = molecular target: Glucose-6-phosphate 1-dehydrogenase (Homo sapiens, UniProt P11413); assay: inhibition of Homo sapiens G6PD, dose series – biochemical, fluorescence, selectivity assay for P. falciparum G6PD inhibitor project, dose response (AID 504792); assay type: functional
[4] = molecular target: T1, Replicative DNA helicase DnaB (Mycobacterium tuberculosis, UniProt P9WMR3); assay: DnaB intein splicing inhibitors, dose response, biochemical, cell-free fluorescence (AID 449749); assay type: functional
T1 sequence (P9WMR3 whole entry): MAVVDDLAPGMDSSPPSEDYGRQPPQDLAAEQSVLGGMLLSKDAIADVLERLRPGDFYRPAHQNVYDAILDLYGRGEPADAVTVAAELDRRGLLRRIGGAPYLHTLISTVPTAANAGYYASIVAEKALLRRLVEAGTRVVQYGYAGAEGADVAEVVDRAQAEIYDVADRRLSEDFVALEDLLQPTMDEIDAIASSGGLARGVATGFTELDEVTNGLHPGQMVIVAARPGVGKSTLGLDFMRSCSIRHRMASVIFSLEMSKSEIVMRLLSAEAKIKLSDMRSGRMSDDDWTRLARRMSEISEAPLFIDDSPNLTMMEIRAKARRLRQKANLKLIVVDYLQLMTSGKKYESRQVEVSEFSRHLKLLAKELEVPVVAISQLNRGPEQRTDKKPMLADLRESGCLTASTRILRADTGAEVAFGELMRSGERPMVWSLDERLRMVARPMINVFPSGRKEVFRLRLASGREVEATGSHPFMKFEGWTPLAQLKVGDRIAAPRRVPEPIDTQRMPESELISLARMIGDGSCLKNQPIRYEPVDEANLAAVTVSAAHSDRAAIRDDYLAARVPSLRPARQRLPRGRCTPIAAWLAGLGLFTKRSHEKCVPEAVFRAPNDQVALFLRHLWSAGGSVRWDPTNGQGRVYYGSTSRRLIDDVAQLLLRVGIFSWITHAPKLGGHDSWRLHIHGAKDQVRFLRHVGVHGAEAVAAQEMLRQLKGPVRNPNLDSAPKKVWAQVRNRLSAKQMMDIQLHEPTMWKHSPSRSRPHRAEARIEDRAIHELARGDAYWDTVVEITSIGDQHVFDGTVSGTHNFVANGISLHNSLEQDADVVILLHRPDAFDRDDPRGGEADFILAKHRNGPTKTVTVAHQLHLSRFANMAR

Protein RecA = molecular target: T2, Protein RecA (Mycobacterium tuberculosis, UniProt P9WHJ3); assay: Fluorescence Cell-Free Homogeneous Dose Retest to Identify Inhibitors of RecA-Intein Splicing Activity. [Related pubchem assays (depositor defined):AID2097, AID2223, AID489010, AID492950]; assay type: functional
T2 sequence (P9WHJ3 whole entry): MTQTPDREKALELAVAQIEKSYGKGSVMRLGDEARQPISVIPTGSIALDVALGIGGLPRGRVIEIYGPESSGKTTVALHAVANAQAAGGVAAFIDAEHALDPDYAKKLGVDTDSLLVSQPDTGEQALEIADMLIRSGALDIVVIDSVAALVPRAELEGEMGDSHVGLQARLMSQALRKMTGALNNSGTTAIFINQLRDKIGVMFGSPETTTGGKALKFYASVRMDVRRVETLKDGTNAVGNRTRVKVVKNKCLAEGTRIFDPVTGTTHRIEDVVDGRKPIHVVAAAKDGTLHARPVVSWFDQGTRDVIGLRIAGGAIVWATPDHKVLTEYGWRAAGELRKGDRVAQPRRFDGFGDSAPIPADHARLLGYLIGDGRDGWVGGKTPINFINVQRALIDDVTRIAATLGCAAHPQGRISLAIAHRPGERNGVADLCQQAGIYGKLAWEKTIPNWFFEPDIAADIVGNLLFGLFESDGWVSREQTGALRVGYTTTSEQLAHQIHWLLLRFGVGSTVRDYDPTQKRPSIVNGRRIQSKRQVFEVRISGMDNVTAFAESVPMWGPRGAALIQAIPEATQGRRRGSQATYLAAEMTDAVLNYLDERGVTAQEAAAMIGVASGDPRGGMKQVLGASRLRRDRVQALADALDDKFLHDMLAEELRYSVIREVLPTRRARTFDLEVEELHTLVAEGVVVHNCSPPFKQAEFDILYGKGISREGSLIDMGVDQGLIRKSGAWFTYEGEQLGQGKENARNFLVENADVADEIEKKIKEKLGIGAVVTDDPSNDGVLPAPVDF

Cytochrome P450 2C19 = Cytochrome P450 2C19 (Homo sapiens, UniProt P33261); assay: Cytochrome panel assay with activity outcomes. Panel member name: p450-cyp2c19 Compounds with AC50 equal or less than 10 uM are considered active; assay type: functional; settings: read-out: AC50
[5] = molecular target: T3, Corticotropin-releasing factor receptor 2/Corticotropin-releasing factor-binding protein (Homo sapiens, UniProt P24387+Q13324); assay: Dose Response confirmation of uHTS hits for small molecule antagonists of the CRF-binding protein and CRF-R2 receptor complex.; assay type: functional; settings: read-out: IC50_Mean
T3 sequence (Q13324 whole entry): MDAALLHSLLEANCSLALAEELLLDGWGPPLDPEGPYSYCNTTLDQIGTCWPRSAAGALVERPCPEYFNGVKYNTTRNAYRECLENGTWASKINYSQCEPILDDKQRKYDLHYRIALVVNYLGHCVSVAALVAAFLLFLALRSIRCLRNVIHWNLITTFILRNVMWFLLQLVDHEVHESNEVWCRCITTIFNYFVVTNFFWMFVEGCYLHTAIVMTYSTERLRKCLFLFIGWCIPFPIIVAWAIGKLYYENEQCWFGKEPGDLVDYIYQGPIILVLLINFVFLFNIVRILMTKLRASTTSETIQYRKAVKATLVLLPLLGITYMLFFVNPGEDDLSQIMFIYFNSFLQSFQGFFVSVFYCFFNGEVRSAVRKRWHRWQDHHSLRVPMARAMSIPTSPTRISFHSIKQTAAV
T3 sequence (P24387 whole entry): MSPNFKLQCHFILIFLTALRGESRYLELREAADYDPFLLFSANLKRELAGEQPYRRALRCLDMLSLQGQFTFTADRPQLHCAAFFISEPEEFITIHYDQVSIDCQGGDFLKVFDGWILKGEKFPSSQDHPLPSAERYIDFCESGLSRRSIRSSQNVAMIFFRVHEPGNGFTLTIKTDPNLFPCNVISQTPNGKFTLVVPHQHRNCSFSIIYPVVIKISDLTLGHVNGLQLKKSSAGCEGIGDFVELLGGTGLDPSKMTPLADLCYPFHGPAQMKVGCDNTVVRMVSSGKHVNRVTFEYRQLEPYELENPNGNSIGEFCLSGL

[6] = molecular target: T3, Corticotropin-releasing factor receptor 2/Corticotropin-releasing factor-binding protein; assay: activators of CRF receptor 2 with binding protein – uHTS hits, confirmation (AID 602473); assay type: functional; settings: read-out: EC50_Mean
Cytochrome P450 3A4 = Cytochrome P450 3A4 (Homo sapiens, UniProt P08684);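 further: CYP3A4 tested as one member of a cytochrome P450 panel screen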
Cytochrome P450 2C9 = Cytochrome P450 2C9 (Homo sapiens, UniProt P11712)
Cytochrome P450 2D6 = Cytochrome P450 2D6 (Homo sapiens, UniProt P10635);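 further: CYP2D6 member of a cytochrome P450 panel assay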
Chain of Cytochrome P450 2D6 (P10635 whole entry): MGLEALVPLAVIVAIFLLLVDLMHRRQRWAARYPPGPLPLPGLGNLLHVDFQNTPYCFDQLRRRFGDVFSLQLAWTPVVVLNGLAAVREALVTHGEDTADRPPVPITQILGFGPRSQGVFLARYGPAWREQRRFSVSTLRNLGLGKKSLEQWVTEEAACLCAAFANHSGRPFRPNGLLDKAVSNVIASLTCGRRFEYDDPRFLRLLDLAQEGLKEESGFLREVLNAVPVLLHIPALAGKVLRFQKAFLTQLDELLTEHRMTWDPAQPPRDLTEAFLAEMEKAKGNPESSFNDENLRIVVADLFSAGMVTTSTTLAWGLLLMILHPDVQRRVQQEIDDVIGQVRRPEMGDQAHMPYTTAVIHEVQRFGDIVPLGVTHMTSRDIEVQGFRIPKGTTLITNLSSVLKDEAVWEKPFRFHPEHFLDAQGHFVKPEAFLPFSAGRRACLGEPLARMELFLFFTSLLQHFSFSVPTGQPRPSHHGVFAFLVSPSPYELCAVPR

Chain of Cytochrome P450 2C9 (P11712 whole entry): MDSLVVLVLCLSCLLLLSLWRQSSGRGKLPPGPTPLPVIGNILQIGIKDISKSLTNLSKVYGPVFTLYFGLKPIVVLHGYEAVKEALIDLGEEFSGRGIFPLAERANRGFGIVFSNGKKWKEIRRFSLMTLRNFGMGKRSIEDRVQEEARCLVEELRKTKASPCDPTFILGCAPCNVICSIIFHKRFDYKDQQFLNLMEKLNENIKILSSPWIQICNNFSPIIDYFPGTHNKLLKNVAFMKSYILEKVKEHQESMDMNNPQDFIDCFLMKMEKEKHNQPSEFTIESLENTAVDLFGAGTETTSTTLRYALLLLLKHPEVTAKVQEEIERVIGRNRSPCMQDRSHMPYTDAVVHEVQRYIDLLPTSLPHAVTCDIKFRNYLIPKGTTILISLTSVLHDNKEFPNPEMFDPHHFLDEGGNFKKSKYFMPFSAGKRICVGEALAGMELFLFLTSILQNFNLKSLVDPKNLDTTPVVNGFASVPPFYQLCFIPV
Chain of Cytochrome P450 2C19 (P33261 whole entry): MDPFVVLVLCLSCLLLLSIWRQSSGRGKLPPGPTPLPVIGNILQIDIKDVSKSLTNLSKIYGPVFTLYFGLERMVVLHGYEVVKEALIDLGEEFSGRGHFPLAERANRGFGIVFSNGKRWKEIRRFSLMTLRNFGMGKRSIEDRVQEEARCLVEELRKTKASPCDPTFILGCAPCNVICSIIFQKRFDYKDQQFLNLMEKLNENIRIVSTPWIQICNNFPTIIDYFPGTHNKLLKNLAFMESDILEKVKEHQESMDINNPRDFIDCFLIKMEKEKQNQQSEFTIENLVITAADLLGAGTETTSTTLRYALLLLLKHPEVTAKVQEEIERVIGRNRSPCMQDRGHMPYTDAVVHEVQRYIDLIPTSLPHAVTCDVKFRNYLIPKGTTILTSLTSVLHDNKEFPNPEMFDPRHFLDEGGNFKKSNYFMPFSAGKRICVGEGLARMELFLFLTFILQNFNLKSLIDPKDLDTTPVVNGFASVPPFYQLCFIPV
Chain of Glucose-6-phosphate 1-dehydrogenase (P11413 whole entry): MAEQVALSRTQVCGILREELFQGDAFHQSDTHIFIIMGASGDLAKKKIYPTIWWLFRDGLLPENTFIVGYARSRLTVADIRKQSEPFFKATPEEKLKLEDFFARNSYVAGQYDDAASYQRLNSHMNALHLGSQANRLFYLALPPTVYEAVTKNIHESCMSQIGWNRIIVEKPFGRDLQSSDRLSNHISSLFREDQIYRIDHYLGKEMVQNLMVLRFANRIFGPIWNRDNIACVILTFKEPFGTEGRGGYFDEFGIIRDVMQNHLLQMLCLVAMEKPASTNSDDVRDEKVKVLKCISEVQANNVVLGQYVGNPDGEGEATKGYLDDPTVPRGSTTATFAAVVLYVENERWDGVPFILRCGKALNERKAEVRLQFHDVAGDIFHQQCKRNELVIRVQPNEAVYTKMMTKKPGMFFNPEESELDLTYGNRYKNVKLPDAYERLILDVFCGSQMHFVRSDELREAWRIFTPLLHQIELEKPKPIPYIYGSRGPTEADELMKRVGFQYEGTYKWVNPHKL
Chain of Cytochrome P450 3A4 (P08684 whole entry): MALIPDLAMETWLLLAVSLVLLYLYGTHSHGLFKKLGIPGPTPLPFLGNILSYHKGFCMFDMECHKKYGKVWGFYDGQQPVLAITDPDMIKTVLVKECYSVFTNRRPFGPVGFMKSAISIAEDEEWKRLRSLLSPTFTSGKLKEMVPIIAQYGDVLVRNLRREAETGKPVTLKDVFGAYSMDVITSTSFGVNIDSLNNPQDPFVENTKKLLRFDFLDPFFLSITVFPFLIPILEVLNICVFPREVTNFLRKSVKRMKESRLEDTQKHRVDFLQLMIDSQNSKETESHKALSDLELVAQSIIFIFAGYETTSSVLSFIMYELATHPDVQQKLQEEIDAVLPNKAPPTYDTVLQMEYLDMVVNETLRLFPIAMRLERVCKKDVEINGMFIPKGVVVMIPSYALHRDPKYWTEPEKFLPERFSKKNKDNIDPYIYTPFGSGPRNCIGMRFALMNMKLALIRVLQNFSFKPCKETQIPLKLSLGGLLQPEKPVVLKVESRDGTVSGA

In the case of Cc1ccc(-c2nc3ccccc3s2)cc1NC(=S)NC(=O)c1cccc2ccccc12, the EC50 [1] is reported as 14.1 µM (active), the EC50 [2] is reported as 12.1 µM (active) and the AC50 (Escherichia coli) is reported as 36.4 µM (active).
With O=C(c1cccnc1)C1CCCN(Cc2nc(Cc3ccccc3)no2)C1 (stereo not given) the AC50 (Escherichia coli) was 42 µM (active).
For CCNc1ccccc1CP(=O)(c1ccccc1)c1ccccc1O (stereo not given), the IC50 [3] was 42.6 µM (inactive), the AC50 [4] was 10.4 µM (active) and the EC50 (Protein RecA) was 1.25 µM (active).
In the case of COc1ccc(NC(=O)C(=O)NNC(=O)c2cccs2)c(OC)c1, the AC50 (Cytochrome P450 2C19) is reported as 39.8 µM (inconclusive), the IC50 [5] is reported as > 47.1 µM (inactive) and the EC50 [6] is reported as > 53 µM (inactive). For the same compound, the AC50 (Cytochrome P450 3A4) was 17.8 µM (inconclusive) and the AC50 (Cytochrome P450 2C9) was “inconclusive”.
For CNc1nc(-c2cccnc2)nc2ccccc12, the AC50 (Cytochrome P450 2C19) was 39.8 µM (inconclusive), the AC50 (Cytochrome P450 2D6) was 39.8 µM (inconclusive) and the AC50 (Cytochrome P450 2C9) was “inconclusive”.
With CC(NC(=O)CSc1nc2sc3c(c2c(=O)n1-c1ccccc1)CCCC3)c1ccccc1 (stereo not given) the AC50 (Escherichia coli) was 107 µM (active).
In the case of COc1ccc(NC(=O)CCSc2cc(C)c3ccccc3n2)cc1, the AC50 (Cytochrome P450 2D6) is reported as 31.6 µM (inconclusive) and the AC50 (Cytochrome P450 2C9) is reported as “inconclusive”.
With Oc1nc(N2CCCCC2)nc2c1CCCC2 the AC50 (Escherichia coli) was 24.9 µM (active).
In the case of O=C(Nc1ccc(Cl)c(C(F)(F)F)c1)NC1CC2CCCC(C1)N2C1CC1 (stereo not given), the AC50 (Escherichia coli) is reported as 25.7 µM (active).
